Molecular target: T1, ligand binding domain of human RORγ (A262-S507) (Homo sapiens, UniProt P51449)
T1 construct: made in house; host or cells: E. coli
T1 sequence (P51449 262-507): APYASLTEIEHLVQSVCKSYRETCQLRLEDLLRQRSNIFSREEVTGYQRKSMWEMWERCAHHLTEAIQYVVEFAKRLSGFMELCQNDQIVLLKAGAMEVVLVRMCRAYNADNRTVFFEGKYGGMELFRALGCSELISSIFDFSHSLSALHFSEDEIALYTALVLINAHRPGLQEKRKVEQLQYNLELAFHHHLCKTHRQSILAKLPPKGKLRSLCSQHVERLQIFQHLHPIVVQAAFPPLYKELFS
Assay: General RORγ SPA binding assay (competition with [3H]25-hydroxycholesterol)
Conditions: RORγ SPA binding assay, inhibition of [3H]25-hydroxycholesterol binding; read-out: IC50
Summary of the method: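 N-terminally His-tagged protein was expressed in E. coli and nickel-purified. Then 50 nM protein was preincubated with compound for 15 min at room temperature in PBS with 0.5% fatty acid free BSA, followed by radioligand for 15 min and copper His-tag SPA beads for 30 min. IC50 came from percent inhibition of binding.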

| IC50 | Compound |
| --- | --- |
| 47.8 nM | CCNC(=O)NCC(O)(COc1cccc(C(F)(F)F)n1)c1cnc(C)nc1C1CCN(C(=O)Nc2c(F)cccc2F)CC1 (centres unmarked) [Compound N36, N-(2,6-Difluorophenyl)-4-{5-[2-{[(ethylamino)carbonyl]amino}-1-hydroxy-1-({[6-(trifluoromethyl)pyridin-2-yl]oxy}methyl)ethyl]-2-methylpyrimidin-4-yl}piperidine-1-carboxamide] |
| 36.9 nM | CC(=O)NCC(O)(COc1cccc(C(F)(F)F)n1)c1cnc(C)nc1C1CCN(C(=O)Nc2c(F)cccc2F)CC1 (centres unmarked) [Compound N37, 4-{5-[2-(Acetylamino)-1-hydroxy-1-({[6-(trifluoromethyl)pyridin-2-yl]oxy}methyl)ethyl]-2-methylpyrimidin-4-yl}-N-(2,6-difluorophenyl)piperidine-1-carboxamide] |
| 57.9 nM | CC(=O)NCCNCC(O)(COc1cccc(C(F)(F)F)n1)c1cnc(C)nc1C1CCN(C(=O)Nc2c(F)cccc2F)CC1 (centres unmarked) [Compound N38, 4-{5-[2-{[2-(Acetylamino)ethyl]amino}-1-hydroxy-1-({[6-(trifluoromethyl)pyridin-2-yl]oxy}methyl)ethyl]-2-methylpyrimidin-4-yl}-N-(2,6-difluorophenyl)piperidine-1-carboxamide] |
| 84.1 nM | CC(=O)N1CCN(CC(O)(COc2cccc(C(F)(F)F)n2)c2cnc(C)nc2C2CCN(C(=O)Nc3c(F)cccc3F)CC2)CC1 (centres unmarked) [Compound N39, 4-{5-[2-(4-Acetylpiperazin-1-yl)-1-hydroxy-1-({[6-(trifluoromethyl)pyridin-2-yl]oxy}methyl)ethyl]-2-methylpyrimidin-4-yl}-N-(2,6-difluorophenyl)piperidine-1-carboxamide] |
| 134 nM | CC(=O)N1CCC(NCC(O)(COc2cccc(C(F)(F)F)n2)c2cnc(C)nc2C2CCN(C(=O)Nc3c(F)cccc3F)CC2)C1 (centres unmarked) [Compound N40, 4-(5-{2-[(1-Acetylpyrrolidin-3-yl)amino]-1-hydroxy-1-({[6-(trifluoromethyl)pyridin-2-yl]oxy}methyl)ethyl}-2-methylpyrimidin-4-yl)-N-(2,6-difluorophenyl)piperidine-1-carboxamide] |
| 150 nM | CC(=O)NCCC(=O)NCC(O)(COc1cccc(C(F)(F)F)n1)c1cnc(C)nc1C1CCN(C(=O)Nc2c(F)cccc2F)CC1 (stereo not drawn) [Compound N41, 4-(5-{2-[(N-Acetyl-beta-alanyl)amino]-1-hydroxy-1-({[6-(trifluoromethyl)pyridin-2-yl]oxy}methyl)ethyl}-2-methylpyrimidin-4-yl)-N-(2,6-difluorophenyl)piperidine-1-carboxamide] |
| 183 nM | Cc1ncc(C(O)(CNC(=O)CCO)COc2cccc(C(F)(F)F)n2)c(C2CCN(C(=O)Nc3c(F)cccc3F)CC2)n1 (centres unmarked) [Compound N42, N-(2,6-Difluorophenyl)-4-(5-{1-hydroxy-2-[(3-hydroxypropanoyl)amino]-1-({[6-(trifluoromethyl)pyridin-2-yl]oxy}methyl)ethyl}-2-methylpyrimidin-4-yl)piperidine-1-carboxamide] |
| 9.2 nM | CC(=O)NCC(O)(COc1cccc(C(F)(F)F)n1)c1cnc(C)nc1C1CCN(C(=O)Oc2ccccc2F)CC1 (centres unmarked) [Compound N43, 2-Fluorophenyl 4-{5-[2-(acetylamino)-1-hydroxy-1-({[6-(trifluoromethyl)pyridin-2-yl]oxy}methyl)ethyl]-2-methylpyrimidin-4-yl}piperidine-1-carboxylate] |
| 899 nM | Cc1ncc(C(O)(COc2cccc(C(F)(F)F)n2)C(=O)O)c(C2CCN(C(=O)Nc3c(F)cccc3F)CC2)n1 (centres unmarked) [Compound N44, 2-[4-(1-{[(2,6-Difluorophenyl)amino]carbonyl}piperidin-4-yl)-2-methylpyrimidin-5-yl]-2-hydroxy-3-{[6-(trifluoromethyl)pyridin-2-yl]oxy}propanoic acid] |
| 81.9 nM | CNC(=O)C(O)(COc1cccc(C(F)(F)F)n1)c1cnc(C)nc1C1CCN(C(=O)Nc2c(F)cccc2F)CC1 (centres unmarked) [Compound N45, N-(2,6-Difluorophenyl)-4-{5-[1-hydroxy-2-(methylamino)-2-oxo-1-({[6-(trifluoromethyl)pyridin-2-yl]oxy}methyl)ethyl]-2-methylpyrimidin-4-yl}piperidine-1-carboxamide] |
| 39 nM | CC(=O)NCC(O)(COc1cccc(C(F)(F)F)n1)c1cnc(C)nc1C1CCN(C(=O)Oc2ccc(F)cc2)CC1 (centres unmarked) [Compound N46, 4-Fluorophenyl 4-{5-[2-(acetylamino)-1-hydroxy-1-({[6-(trifluoromethyl)pyridin-2-yl]oxy}methyl)ethyl]-2-methylpyrimidin-4-yl}piperidine-1-carboxylate] |
| 3.6 nM | CC(=O)NCC(O)(COc1cccc(C(F)(F)F)n1)c1cnc(C)nc1C1CCN(C(=O)Oc2c(F)cccc2F)CC1 (centres unmarked) [Compound N47, 2,6-Difluorophenyl 4-{5-[2-(acetylamino)-1-hydroxy-1-({[6-(trifluoromethyl)pyridin-2-yl]oxy}methyl)ethyl]-2-methylpyrimidin-4-yl}piperidine-1-carboxylate] |
| 5.6 nM | Cc1ncc(C(N)(C#N)COc2cccc(C(F)(F)F)n2)c(C2CCN(C(=O)Nc3c(F)cccc3F)CC2)n1 (centres unmarked) [Compound N48, 4-[5-(1-Amino-1-cyano-2-{[6-(trifluoromethyl)pyridin-2-yl]oxy}ethyl)-2-methylpyrimidin-4-yl]-N-(2,6-difluorophenyl)piperidine-1-carboxamide] |
| 176 nM | Cc1ncc(C(N)(COc2cccc(C(F)(F)F)n2)C(N)=O)c(C2CCN(C(=O)Nc3c(F)cccc3F)CC2)n1 (centres unmarked) [Compound N49, 4-{5-[1,2-Diamino-2-oxo-1-({[6-(trifluoromethyl)pyridin-2-yl]oxy}methyl)ethyl]-2-methylpyrimidin-4-yl}-N-(2,6-difluorophenyl)piperidine-1-carboxamide] |
| 290 nM | Cc1ncc(C2(C)CN(c3ccnc(C(F)(F)F)n3)C(=O)O2)c(C2CCN(C(=O)Cc3c(F)cccc3F)CC2)n1 (centres unmarked) [Compound N50, 5-(4-{1-[(2,6-Difluorophenyl)acetyl]piperidin-4-yl}-2-methylpyrimidin-5-yl)-5-methyl-3-[2-(trifluoromethyl)pyrimidin-4-yl]-1,3-oxazolidin-2-one] |
| 4.9 nM | Cc1ncc(C2(COc3cccc(C(F)(F)F)n3)CCO2)c(C2CCN(C(=O)Nc3c(F)cccc3F)CC2)n1 (centres unmarked) [Compound N51, N-(2,6-Difluorophenyl)-4-{2-methyl-5-[2-({[6-(trifluoromethyl)pyridin-2-yl]oxy}methyl)oxetan-2-yl]pyrimidin-4-yl}piperidine-1-carboxamide] |
| 13.8 nM | Cc1ncc(C2(COc3cccc(C(F)(F)F)n3)CNC(=O)O2)c(C2CCN(C(=O)Nc3c(F)cccc3F)CC2)n1 (centres unmarked) [Compound N52, N-(2,6-Difluorophenyl)-4-{2-methyl-5-[2-oxo-5-({[6-(trifluoromethyl)pyridin-2-yl]oxy}methyl)-1,3-oxazolidin-5-yl]pyrimidin-4-yl}piperidine-1-carboxamide] |
